Five compounds from patent publication US7723058B2, “Test system for the determination of in-vivo active hemostasis proteases in biological fluids and/or the usage thereof to determine the in-vivo activation of hemostasis” (priority 2001, dated 2010) can be followed below.

Where a SMILES comes first, the peptide text is derived from it. [ ]: non-standard residue; d: D form. The star is where a group is joined. dChg = N[C@@H](C(=O)O)C1CCCCC1; pNA = O=[N+]([O-])c1ccc(N*)cc1

Common to all, as to assay type: biochemical
For one data set, the system named is normal plasma. In words: Inhibition of the 1-step CPC by arginine. The following applies: plasmatic concentrations of arginine above 100 mM. Here is the method:
The CPC-test was performed in the 1-step mode as follows: 100 μl normal plasma, containing increasing concentrations of arginine (0-300 mM), pH 8.7 were incubated with 50 μl 1.7 mM HD-CHG-Ala-Arg-pNA in aqua dest. and 50 μl Pathromtin SL®, The increase in absorbance/t (t=0-10 min RT) was determined. Result: at plasmatic concentrations of arginine above 100 mM the Pathromtin SL®-CPC is decreased to 0% (compared to a normal plasma without arginine=100%),

The next data set deals with T1, bovine thrombin (Bos taurus, UniProt P00735).
T1 construct: activity of thrombin in plasma after addition of 120 mlU/ml thrombin (F IIa); purchased DadeBehring
Briefly: Determination of the Km-value for thrombin in plasma. The following applies: thrombin in plasma after addition of 120 mlU/ml thrombin; 37° C.; read-out: substrate concentration at halfmaximal velocity (Km-value). The method, then: 1. Normal EDTA-plasma with 250 mM arginine, pH 8.7, and 2. normal EDTA-plasma, supplemented with 120 mlU/ml bovine thrombin and 30 min thereafter with 250 mM arginine, pH 8.7, were incubated with 50 μl HD-CHG-Ala-Arg-pNA (0-6.67 mM final) in aqua dest, Delta A/3 h (37° C.) was measured and the value of 1. was subtracted from the value of 2. The resulting difference corresponds to the activity of thrombin in plasma after addition of 120 mlU/ml thrombin (F IIa). Result the maximal enzyme velocity is 800 mA/3 h the substrate concentration at halfmaximal velocity (Km-value) is 0.3 mM.

Data set [1] relates to normal EDTA-Plasma supplemented with bovine thrombin (pathoplasma). In words: GACA, optimization of the concentration of substrate, pathoplasma. Here is the method:
Before and after the incubation the extinction at 405 nm was determined.
The ratio of the extinctions of pathoplasma and normal plasma approximates the value of 1 at final substrate concentrations >1.5 mM. The higher this value the more specific is the assays for pathologic activation of hemostasis, here imitated by addition of 120 mlU/ml bovine thrombin. This ratio reaches maximal values at final substrate concentrations ≦1 mM. However, the maximal change in extinction decreases at low substrate concentrations, especially at substrate concentrations below 0.3 mM, i.e. substrate exhaustion occurs. Therefore the final substrate concentration in the GACA should be between 0.3 mM and 1.0 mM, preferentially between 0.5 mM and 0.8 mM, particularly at 0.56 mM. At this final substrate concentration the assay is very specific for activation of hemostasis, and consequently the determination of CPC (approach B) can be neglected where appropriate. Thus, the GACA-value corresponds to the uGACA-value at a final substrate concentration of up to 0.8 mM, i.e. GACA=approach A (without correction is by approach B). After addition of thrombin to EDTA-plasma 90% of thrombin is inactivated, in the GACA only 10% of the added enzyme activity can be detected.

The nature of data set [2]: Standardization of GACA with a pure enzyme-reagent / FEIBA. The following applies: pure enzyme in 500 mM arginine, 2% Hämaccel, 0.1% Triton X 100. Here is the method:
The GACA was performed with 100 μl pure bovine thrombin (0-18 mlU/ml; DadeBehring), pure bovine Factor Xa (0-150 pkat/ml) or a Factor-Eight-Inhibitor-Bypassing-Activity-concentrate (0-2.6 units/ml; FEIBA®, Immuno, Wien) in 500 mM arginine, 2% Hämaccel®, 0.1% Triton X 100® (substrate here=HD-CHG-Ala-Arg-pNA. Additional samples were Control Plasma N® (CPN, DadeBehring) or CPN supplemented with FEIBA (0-2.6 units/ml). The incubation was varied from 0 to 4 h. The respective change in extinction was measured. Result: There appears a linear relationship between the thrombin- or factor Xa-concentration used and the resulting change in extinction, and also between incubation time and change in extinction. 6 mlU/ml IIa or 45 pkat/ml Xa result in a change in extinction, that corresponds to that of normal plasma (100% GACA). Thus, the GACA can be calibrated and standardized with pure thrombin- or factor Xa-reagent. CPN with 2.6 units/ml FEIBA has a GACA-value of approx. 200%, i.e. this addition of FEIBA to CPN increases the GACA-value from 100% to […].

The subject of another data set is normal plasma (citrated). In words: Optimization of the test concentration of contact phase activator in the CPC. Here is the method: To optimize the contact phase activator in the CPC 100 μl • a) Neothromtin® (0.6 g/l ellagic acid (3 ml vial Dade Behring in 1.5 ml H2O) • b) Pathromtin® (5 g/l Kaolin, Dade Behring) • c) Pathromtin SL® (SiO2, Dade Behring) in 1:1, 1:2, 1:4, 1:8, 1:16, 1:32, 1:64, 1:128 dilution with H2O or for control 100 μl H2O were incubated with 100 μl 1.5 mmol/l HD-CHG-Ala-Arg-pNA in PBS and with 100 μl normal plasma (citrated) for 4 min (RT). The increase In extinction (405 nm)/4 min was determined.

The next data set deals with Control Plasma N® (CPN). Briefly: Comparison of different CPC-approaches. The following applies: CPN; approaches B) and C). Here is the method:
For n=22 citrated plasmas of patients and the Control Plasma N® (CPN) the following CPC-approaches were performed, 2-step-approaches A, B, C and 1-step-approaches D, E, F. • A) 50 μl Plasma+25 μl Pathromtin SL® (SiO2) • B) 50 μl Plasma+25 μl Pathromtin® (kaolin, in H2O twofold diluted) • C) 50 μl Plasma+25 μl Neothromtin® (ellagic acid)
3 min RT time of activation; +25 μl 1.7 mM HD-CHG-Ala-Arg-pNA, 750 mM arginine, 6.4 g/l EDTA, pH 8.7 • D) 50 μl Plasma+25 μl 1.7 mM CH3SO2-D-CHG-Gly-Arg-pNA • E) 50 μl Plasma+13 μl 1.5 M arginine, pH 8.7, +50 μl 1.7 mM CH3SO2-D-CHG-Gly-Arg-pNA • F) 50 μl Plasma+25 μl 1.7 mM HD-CHG-Ala-Arg-pNA in H2O+25 μl Pathromtin SL®
Determination of delta A at 405 nm (RT). The respective changes in extinction were correlated with each other. Result: Pathromtin SL®-2-step-CPC correlated with Pathromtin SL®-1-step-CPC with r=0.798 (delta A/13 min (RT) for CPN in 2-step-CPC=354 mA; delta A/2 min (RT) for CPN-547 mA, i.e. in the 1-step-CPC a […] higher Thrombin-Like Activity is generated compared with the 2-step-CPC; the corresponding values for approaches B) and C) are approx. 30% or 20% lower, respectively. […] Thus, even in arginine-stabilized plasma the amidolytic activity against CH3SO2-D-CHG-Gly-Arg-pNA can reliably be determined, what is valid for chromogenic substrates with a CH3SO2-group.

Another data set relates to CPN. Briefly: Aprotinin titration in CPN. The note with it: 50 min 37° C. The method, then:
(§1) 25 μl plasma of a pancreatitis-patient (citrated), 25 μl CPN, 25 μl 36 pkat/ml bovine Factor Xa in PBS, 0.1% Triton X 100®, were incubated with 25 μl assay buffer, containing 600 mM NaHCO3, ph 8.7 with and without 600 mM arginine, 25 μl 25 mM chloramines T®, 25 μl 3 mM N-α-Z-D-Arg-Gly-Arg-pNA 2HCl (S-2765®; Chromogenix, Mölndal, Sweden) and 25 μl Aprotinin (0, 2, 20, 200, 2000, 20000 KIU/ml) for 50 min at 37° C. and the increase in extinction at 405 nm during this incubation time was determined with a microtiterplate-photometer.

The next data set has as its target T2, bovine Factor Xa (Bos taurus, UniProt P00743).
T2 construct: 25 μl 36 pkat/ml bovine Factor Xa in PBS
Briefly: Aprotinin on pure factor Xa. The following applies: 36 pkat/ml bovine Factor Xa; substrate S-2765. The method, then: […], 0.1% Triton X 100®, were incubated with 25 μl assay buffer, containing 600 mM NaHCO3, ph 8.7 with and without 600 mM arginine, 25 μl 25 mM chloramines T®, 25 μl 3 mM N-α-Z-D-Arg-Gly-Arg-pNA 2HCl (S-2765®; Chromogenix, Mölndal, Sweden) and 25 μl Aprotinin (0, 2, 20, 200, 2000, 20000 KIU/ml) for 50 min at 37° C. and the increase in extinction at 405 nm during this incubation time was determined with a microtiterplate-photometer.

For a further data set, the system named is active trypsin. Briefly: Detection of active trypsin in plasma, aprotinin titration, pancreatitis plasma. The following applies: 50 min 37° C. Here is the method: as §1
The mark [3] stands for this setting: 25 μl 2 KIU/ml, absence of arginine.
Setting [4] is: 25 μl 2 KIU/ml, presence of arginine.
Setting [5] is: 25 μl 20 KIU/ml, absence of arginine.
Setting [6] is: 25 μl 20 KIU/ml, presence of arginine.
The mark [7] stands for this setting: 25 μl 200 KIU/ml, absence of arginine.
[8] abbreviates: 25 μl 200 KIU/ml, presence of arginine.
[9] abbreviates: 25 μl 2000 KIU/ml, absence of arginine.
Setting [10] is: 25 μl 2000 KIU/ml, presence of arginine.
The mark [11] stands for this setting: 25 μl 20000 KIU/ml, absence of arginine.
The mark [12] stands for this setting: 25 μl 20000 KIU/ml, presence of arginine.

T2 sequence (P00743 234-492 limits assumed): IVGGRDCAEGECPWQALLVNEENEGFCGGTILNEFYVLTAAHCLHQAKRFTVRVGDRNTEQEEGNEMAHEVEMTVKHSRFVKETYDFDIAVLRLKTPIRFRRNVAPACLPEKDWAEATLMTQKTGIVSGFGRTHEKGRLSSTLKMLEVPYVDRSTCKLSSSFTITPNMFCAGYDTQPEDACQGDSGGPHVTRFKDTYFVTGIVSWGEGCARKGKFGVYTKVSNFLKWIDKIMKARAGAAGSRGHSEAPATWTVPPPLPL
T2 sequence (P00743 41-180 partner limits assumed): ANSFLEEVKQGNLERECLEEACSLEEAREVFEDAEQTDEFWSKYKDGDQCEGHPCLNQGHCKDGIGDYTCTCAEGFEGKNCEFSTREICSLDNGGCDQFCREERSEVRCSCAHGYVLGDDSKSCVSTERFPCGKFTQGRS

Take `N=C(N)NCCC[C@H](N)C(=O)O` [arginine]: the “Pathromtin SL®-CPC compared to a normal plasma without arginine=100%” value in the data set with normal plasma was determined as 0%.
For `C[C@H](NC(=O)[C@H](N)C1CCCCC1)C(=O)N[C@@H](CCCNC(=N)N)C(=O)Nc1ccc([N+](=O)[O-])cc1` [HD-CHG-Ala-Arg-pNA, HD-CHG-Ala-Arg-pNA.2AcOH] (H-[dChg]-Ala-Arg-pNA), the Km on bovine thrombin was 300 µM.
For “thrombin: pure bovine thrombin (DadeBehring)”, the “thrombin inactivated after addition to EDTA-plasma” value in data set [1] is on record as 90%. The “added enzyme activity that can be detected in the GACA” value in data set [1] (after addition of thrombin to EDTA-plasma) is 10%. Further, the “concentration giving a change in extinction that corresponds to normal plasma (100% GACA)” value in data set [2] came out at 6 mlU/ml.
Consider `O=c1oc2c(O)c(O)cc3c(=O)oc4c(O)c(O)cc1c4c23` [ellagic acid], for which the “test concentration at optimal activity of protease” value in the data set on normal plasma (citrated) (CPC, 4 min RT) is 0.05 g/L. The “delta A” value in the data set on normal plasma (citrated) (at optimal test concentration of contact phase activator, 405 nm, RT) was determined as 1443 mA/4 min. For the same compound, in the data set with Control Plasma N® (CPN), the “2-step-CPC value lower than with Pathromtin SL®” value is around 20%.
For the compound aprotinin, the “increase in extinction in the CPN” value in the data set on CPN (setting [3]) is given as 134 mA; with CPN (setting [4]), 133 mA; in the data set with CPN (setting [5]), 135 mA; in the data set on CPN (setting [6]), 126 mA; in the data set with CPN (setting [7]), 108 mA; in the data set on CPN (setting [8]), 126 mA. For the same compound, the “increase in extinction in the CPN” value in the data set with CPN (setting [9]) came to 118 mA; in the data set with CPN (setting [10]), 125 mA; in the data set on CPN (setting [11]), 124 mA; in the data set on CPN (setting [12]), 123 mA. Further, the “inhibition of pure factor Xa” value on bovine Factor Xa is recorded as “not inhibited”. For the same compound, the increase of extinction is recorded as 733 mA in the data set with active trypsin (setting [3]); 778 mA in the data set with active trypsin (setting [4]); 715 mA in the data set on active trypsin (setting [5]); 709 mA in the data set on active trypsin (setting [6]); 531 mA with active trypsin (setting [7]); 685 mA in the data set with active trypsin (setting [8]). The increase of extinction is 294 mA with active trypsin (setting [9]), 497 mA in the data set with active trypsin (setting [10]), 103 mA with active trypsin (setting [11]) and 259 mA in the data set on active trypsin (setting [12]).
